Usually IC50 stands for the concentration that inhibits the measured activity by half. Broadly, the logD is the decadic logarithm of the distribution of all forms, ionised or not, between an organic phase and buffer at a given pH.

*1 amine or outer side, *2 acyl side, *3 side chain or, on linkers, in order; H or OH if unused. Where a SMILES comes first, the peptide text is derived from it. [ ]: non-standard residue; d: D form. The star is where a group is joined. ξ: configuration not given here. Dolaproine = CO[C@@H]([C@@H]1CCCN1)[C@@H](C)C(=O)O; Hexanoyl(6-maleimido) = O=C1C=CC(=O)N1CCCCCC(=O)*; Propanoyl(3-maleimido) = O=C1C=CC(=O)N1CCC(=O)*; Dil = CC[C@H](C)[C@H](NC)[C@@H](CC(=O)O)OC; PABC = O=C(OCc1ccc(N[*:1])cc1)[*:2]; Val(3-OH) = CC(C)(O)[C@H](N)C(=O)O; Doe = c1ccc(C[C@H](N*)c2nccs2)cc1; X1 = C[C@@H](N*)[C@@H](O)c1ccccc1; Cit = NC(=O)NCCC[C@H](N)C(=O)O; Phe(ol) = N[C@H](CO)Cc1ccccc1; NHPhenethyl = c1ccc(CCN*)cc1; X3 = CN1C(=O)OC[C@@H]1C(=O)*; NMeV = CN[C@H](C(=O)O)C(C)C; X2 = CN(C)[C@@H](CO)C(=O)*; NMeS = CN[C@@H](CO)C(=O)O; ξαMeS = CC(N)(CO)C(=O)O

In one data set the test system is CALU1. In words: In vitro cytotoxicity of auristatin ADCs and free drugs (CellTiter-Glo, 96 h). Format: cell-based. The settings on record: Homo sapiens, Calu-1, 96 h, read-out: IC50, CALU1. As to the method: (§1) Cancer cells were counted and plated in 40 μL complete growth media in 384-well, white-walled tissue culture treated plates (Corning). Cell plates were incubated at 37° C. and with 5% CO2 overnight to allow the cells to equilibrate. Stock solutions containing ADCs or free drugs were serially diluted in RPMI-1640+20% fetal bovine serum (FBS). 10 μL of each concentration were then added to each cell plate in duplicate. Cells were then incubated at 37° C. and with 5% CO2 for 96 hours, upon which, the cell plates were removed from the incubator and allowed to cool to room temperature for 30 minutes prior to analysis. CellTiter-Glo® luminescent assay reagent (Promega Corporation, Madison, WI) was prepared according to Promega's protocol. 10 μL of CellTiter-Glo® were added to assay plates using a Formulatrix Tempest liquid handler (Formulatrix) and the plates were protected from light for 30 minutes at room temperature. The luminescence of the samples was measured using an EnVision Multimode plate reader (Perkin Elmer, Waltham, MA). Raw data were analyzed in Graphpad Prism (San Diego, CA) using a nonlinear, 4-parameter curve fit model [Y=Bottom+(Top-Bottom)/(1+10^((LogEC50−X)*HillSlope))]. Results are reported as IC50 values, which are defined as the concentration of ADC or free drug required to reduce cell viability to 50%.
In general terms: Cellular ATP, detected with luciferase, serves as a proxy for viable cell number.

A further data set deals with A2058. The description is as above. The class given is cell-based. The settings on record: Homo sapiens, A2058, 96 h, read-out: IC50, A2058. As to the method: as §1
For the next data set, the system named is SKMEL5. The description is as above. Particulars: Homo sapiens, SK-MEL-5, 96 h, read-out: IC50, SKMEL5. Format: cell-based. As for the experimental part:
as §1

Another data set deals with SKMEL28. Described as above. Format: cell-based. Particulars: Homo sapiens, SK-MEL-28, 96 h, read-out: IC50, SKMEL28. As to the method:
as §1

The test system of data set [1] is DEL, Karpas299, and L540cy cell lines. In words: Average cytotoxicity of DEL, Karpas299, and L540cy cell lines. The class given is cell-based. The settings on record: read-out: Avg IC50 Free drug. As to the method: (§2) The cytotoxicity of free drugs and drug conjugates were measured by a cell proliferation assay employing the protocol described in Promega Corp. Technical Bulletin TB288; and Mendoza et al., 2002, Cancer Res. 62:5485-5488), the methods of which are specifically incorporated by reference herein. Briefly, an aliquot of 40 μl of cell culture containing about 400 cells in medium is deposited in each well of a 384-well, opaque-walled plate. A 10 μL aliquot of free drug or drug conjugate is added to the experimental wells and incubated for 96 h and are then equilibrated to room temperature for approximately 30 minutes whereupon a volume of CellTiter-Glo™ reagent equal to the volume of cell culture medium present in each well is added. The contents are mixed for 2 minutes on an orbital shaker to induce cell lysis and the plate is incubated at room temperature for 10 minutes to stabilize the luminescence signal for recordation.
Tolerability of an ADC comprising the compound of Example 8 of the present application was compared to tolerability of ADCs comprising the known compounds MMAE and MMAF. Without being bound by theory, the improvements in tolerability are believed to be related to reduced toxicities in the bone marrow and in the liver that are a result of the OH moieties on the compound of Example 8.

Data set [2] can be described thus: LogD, miniaturized 1-octanol/pH 7.4 buffer shake flask method, LC/MS/MS. The class given is physicochemical. As to the method: The LogD (distribution coefficient) of the compounds was measured using a miniaturized 1-octanol/pH 7.4 buffer shake flask method followed by LC/MS/MS analysis. Values were determined by measuring the compound partitioned in the organic and buffered layers.

The next data set has as its system Karpas299 NHL. In words: In vitro cytotoxicity, cell proliferation assay (CellTiter-Glo, 96 h). Format: cell-based. The settings on record: Homo sapiens, KARPAS-299, auristatin free drug. As to the method:
as §2

Another data set deals with DEL ALCL. The description is as above. Format: cell-based. The settings on record: auristatin free drug. As to the method:
as §2

A further data set has as its system L540cy HL. Described as above. The class given is cell-based. The settings on record: auristatin free drug. As for the experimental part: as §2
Another data set relates to Sprague Dawley rats. In words: In vivo rat safety study of non-binding (h00) ADCs, hematology and clinical chemistry. The settings on record: ADC of the Drug-Linker. As for the experimental part: In vivo rat safety studies were done in naive female Sprague Dawley rats (Envigo). Studies had 3 animals/group/timepoint and included a vehicle control group (1×PBS pH 7.4). Animals were administered a single dose of 15 or 80 mg/kg of an h00 ADC (DAR=4) via intravenous injection. Blood was drawn at days 5 and day 8. Blood was sampled under isoflurane anesthesia via the jugular vein for periodic hematology analysis on the Sysmex XT-2000iV. At necropsy, blood was collected from the caudal vena cava for hematology and clinical chemistry panels. Clinical chemistry was analyzed on a Beckman Coulter AU680.

As to `CC[C@H](C)[C@@H]([C@@H](CC(=O)N1CCC[C@H]1[C@H](OC)[C@@H](C)C(=O)N[C@H](CO)Cc1ccccc1)OC)N(C)C(=O)[C@@H](NC(=O)[C@H](CO)N(C)C)C(C)C` [Ex. 8 (compound 1.1)] (X2-V[Dil][Dolaproine][Phe(ol)]), the IC50 with CALU1 worked out at 5 nM; in the data set with A2058, 2 nM; with SKMEL5, 2 nM; in the data set on SKMEL28, 4 nM.

Take `CC[C@H](C)[C@@H]([C@@H](CC(=O)N1CCC[C@H]1[C@H](OC)[C@@H](C)C(=O)N[C@H](CO)Cc1ccccc1)OC)N(C)C(=O)[C@@H](NC(=O)[C@H](CO)N(C)C)C(C)C` [Example 8] (X2-V[Dil][Dolaproine][Phe(ol)]): the concentration for half-maximal inhibition (IC50) was found to be 2.9 nM in data set [1], 1.4 nM in the data set on Karpas299 NHL, 0.7 nM in the data set with DEL ALCL and 6.6 nM in the data set with L540cy HL. The same compound gave a logD in data set [2] of 1.6.

On to `CC[C@H](C)[C@@H]([C@@H](CC(=O)N1CCC[C@H]1[C@H](OC)[C@@H](C)C(=O)N[C@@H](Cc1ccccc1)c1nccs1)OC)N(C)C(=O)[C@@H](NC(=O)[C@@H](N)C(C)(C)O)C(C)C` [Example 31] (H-[Val(3-OH)]V[Dil][Dolaproine]-Doe), for which the logD in data set [2] turned out to be 3.4. The half-maximal inhibitory concentration (IC50) was 1.7 nM in the data set on Karpas299 NHL, 2.1 nM in the data set with DEL ALCL and 4.7 nM with L540cy HL.

The compound `CC[C@H](C)[C@@H]([C@@H](CC(=O)N1CCC[C@H]1[C@H](OC)[C@@H](C)C(=O)N[C@H](C)[C@@H](O)c1ccccc1)OC)N(C)C(=O)[C@@H](NC(=O)C[C@@H](N)CO)C(C)C` [Example 32] had a log distribution coefficient (logD) in data set [2] of 0.3. Also, the half-maximal inhibitory concentration (IC50) with Karpas299 NHL came to 56 nM; in the data set on DEL ALCL, 64 nM; in the data set with L540cy HL it was 920 nM.

In turn, `CC[C@H](C)[C@@H]([C@@H](CC(=O)N1CCC[C@H]1[C@H](OC)[C@@H](C)C(=O)N[C@H](C)[C@@H](O)c1ccccc1)OC)N(C)C(=O)[C@@H](NC(=O)C(C)(N)CO)C(C)C` (stereo partly shown) [Example 33] (H-[ξαMeS]V[Dil][Dolaproine]-X1) had a logD in data set [2] of 3.2. Also, the 50% inhibitory concentration (IC50) came out at 1.7 nM in the data set on Karpas299 NHL, 1.8 nM in the data set on DEL ALCL and 6.4 nM with L540cy HL.

`CC[C@H](C)[C@@H]([C@@H](CC(=O)N1CCC[C@H]1[C@H](OC)[C@@H](C)C(=O)N[C@H](CO)Cc1ccccc1)OC)N(C)C(=O)[C@@H](NC(=O)[C@H]1COC(=O)N1C)C(C)C` [Example 45] (X3-V[Dil][Dolaproine][Phe(ol)]): in [2], the logD amounted to 1.5. For the same compound, the figures for the IC50 in the data set on Karpas299 NHL, in the data set with DEL ALCL and in the data set with L540cy HL were 40.8 nM, 8.5 nM and 272 nM, respectively.

`CC[C@H](C)[C@@H]([C@@H](CC(=O)N1CCC[C@H]1[C@H](OC)[C@@H](C)C(=O)N[C@H](CO)Cc1ccccc1)OC)N(C)C(=O)[C@@H](NC(=O)[C@H](CO)N(C)C(=O)OCc1ccc(NC(=O)[C@H](CCCNC(N)=O)NC(=O)[C@@H](NC(=O)CCCCCN2C(=O)C=CC2=O)C(C)C)cc1)C(C)C` [Example 61] ({Hexanoyl(6-maleimido)}-V[Cit][PABC][NMeS]V[Dil][Dolaproine][Phe(ol)]): in the data set on Sprague Dawley rats, the “Tolerated at 80 mg/kg in rats” value is given as “Yes”.

For `CC[C@H](C)[C@@H]([C@@H](CC(=O)N1CCC[C@H]1[C@H](OC)[C@@H](C)C(=O)NCCc1ccccc1)OC)N(C)C(=O)[C@@H](NC(=O)[C@H](CO)N(C)C(=O)OCc1ccc(NC(=O)[C@H](CCC(=O)O)NC(=O)[C@H](C)NC(=O)[C@@H](CC(C)C)NC(=O)CCN2C(=O)C=CC2=O)cc1)C(C)C` [Example 78] ({Propanoyl(3-maleimido)}-[dL]AE[PABC][NMeS]V[Dil][Dolaproine]-NHPhenethyl), the “Tolerated at 80 mg/kg in rats” value with Sprague Dawley rats was “Yes”.

As to `CC[C@H](C)[C@@H]([C@@H](CC(=O)N1CCC[C@H]1[C@H](OC)[C@@H](C)C(=O)N[C@@H](Cc1ccccc1)c1nccs1)OC)N(C)C(=O)[C@@H](NC(=O)[C@H](CO)N(C)C(=O)OCc1ccc(NC(=O)[C@H](CCC(=O)O)NC(=O)[C@H](C)NC(=O)[C@@H](CC(C)C)NC(=O)CCN2C(=O)C=CC2=O)cc1)C(C)C` [Example 79] ({Propanoyl(3-maleimido)}-[dL]AE[PABC][NMeS]V[Dil][Dolaproine]-Doe), the “Tolerated at 80 mg/kg in rats” value with Sprague Dawley rats is listed as “No”.

Turning to `CC[C@H](C)[C@@H]([C@@H](CC(=O)N1CCC[C@H]1[C@H](OC)[C@@H](C)C(=O)N[C@@H](Cc1ccccc1)c1nccs1)OC)N(C)C(=O)[C@@H](NC(=O)[C@H](CO)N(C)C(=O)OCc1ccc(NC(=O)[C@H](CCC(=O)O)NC(=O)[C@H](C)NC(=O)[C@@H](CC(C)C)NC(=O)CCN2C(=O)C=CC2=O)cc1)[C@@H](C)CC` [Example 80] ({Propanoyl(3-maleimido)}-[dL]AE[PABC][NMeS]I[Dil][Dolaproine]-Doe), the “Tolerated at 80 mg/kg in rats” value in the data set with Sprague Dawley rats is reported as “Yes”.

With `CC[C@H](C)[C@@H]([C@@H](CC(=O)N1CCC[C@H]1[C@H](OC)[C@@H](C)C(=O)N[C@H](C)[C@@H](O)c1ccccc1)OC)N(C)C(=O)[C@@H](NC(=O)[C@@H](NC)C(C)C)C(C)C` [MMAE, monomethyl auristatin E, reference compound] (H-[NMeV]V[Dil][Dolaproine]-X1), the IC50 in data set [1] is 0.2 nM; in the data set on Karpas299 NHL, 0.1 nM; in the data set on DEL ALCL, 0.05 nM; with L540cy HL, 0.1 nM; in the data set with CALU1, 0.6 nM; with A2058, 0.3 nM. Besides, the IC50 with SKMEL5 came out at 0.2 nM; in the data set with SKMEL28, 0.4 nM. In addition, the logD in [2] was found to be 1.9.

For the compound `CC[C@H](C)[C@@H]([C@@H](CC(=O)N1CCC[C@H]1[C@H](OC)[C@@H](C)C(=O)N[C@@H](Cc1ccccc1)C(=O)O)OC)N(C)C(=O)[C@@H](NC(=O)[C@@H](NC)C(C)C)C(C)C` [MMAF, monomethyl auristatin F, reference compound] (H-[NMeV]V[Dil][Dolaproine]F-OH), the IC50 came out at 44 nM in [1], 41 nM in the data set on Karpas299 NHL, 44 nM with DEL ALCL and 47 nM with L540cy HL. Further, the logD in [2] came to 0.03.

These data come from patent US20240123080A1, “CYTOTOXIC COMPOUNDS AND CONJUGATES THEREOF” (Seagen Inc., priority 2022, published 2024).
